According to the supplement of paper PMC10627819:

Assays:
Assay in all cases: fitness (endpoint OD595 vs no drug) (fraction); higher = more growth
S. aureus Newman = conditions: one replicate
Outline: (§1)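 Bacterial growth was followed in 384-well plates seeded at OD595 0.01, with 30 µl per well, or 55 µl for S. pneumoniae, in TSB, LB Lennox or CY at 37 °C. OD595 was read every 30 min for 14 h, and each reading had the first reading subtracted as background. Fitness is the background-corrected optical density at entry into stationary phase divided by the robust mean of the no-drug control wells. This ratio is capped at 1.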

S. pneumoniae D39V = tested on: S. pneumoniae D39V
Outline: as §1

B. subtilis 168 = tested on: B. subtilis 168
Outline: as §1

O=C(O)[C@H]1/C(=C/CO)O[C@@H]2CC(=O)N21 [Clavulanic acid] + CN1C2=CC=CC=C2N=C3C1=CC=CC3=O [Pyocyanin]
fitness
Conditions | partner 0.65 µg/mL | partner 1.25 µg/mL | partner 1.3 µg/mL | partner 2.5 µg/mL | partner 5 µg/mL
B. subtilis 168, first compound 1.5 µg/mL | – | 0.91 | – | 0.837 | 0.678
B. subtilis 168, first compound 3 µg/mL | – | 0.798 | – | 0.818 | 0.665
B. subtilis 168, first compound 6 µg/mL | – | 0.748 | – | 0.719 | 0.604
S. aureus Newman, first compound 0.03125 µg/mL | – | 0.884 | – | 0.898 | 0.723
S. aureus Newman, first compound 0.0625 µg/mL | – | 0.934 | – | 0.87 | 0.785
S. aureus Newman, first compound 0.125 µg/mL | – | 0.855 | – | 0.827 | 0.74
S. pneumoniae D39V, first compound 0.5 µg/mL | ≥ 1 | – | 0.765 | – | –
S. pneumoniae D39V, first compound 1 µg/mL | 0.94 | – | 0.791 | – | –
S. pneumoniae D39V, first compound 2 µg/mL | 0.861 | – | 0.581 | – | –

O=C(O)[C@H]1/C(=C/CO)O[C@@H]2CC(=O)N21 [Clavulanic acid] + C[n+]1ccc(-c2cc[n+](C)cc2)cc1 [Paraquat]
fitness
Conditions | partner 1.25 µg/mL | partner 1.5 µg/mL | partner 2.5 µg/mL | partner 3 µg/mL | partner 5 µg/mL | partner 6 µg/mL
B. subtilis 168, first compound 1.5 µg/mL | 0.93 | – | 0.96 | – | 0.835 | –
B. subtilis 168, first compound 3 µg/mL | 0.87 | – | 0.812 | – | 0.77 | –
B. subtilis 168, first compound 6 µg/mL | 0.773 | – | 0.728 | – | 0.672 | –
S. aureus Newman, first compound 0.03125 µg/mL | 0.952 | – | 0.98 | – | 0.99 | –
S. aureus Newman, first compound 0.0625 µg/mL | 0.99 | – | 0.983 | – | ≥ 1 | –
S. aureus Newman, first compound 0.125 µg/mL | 0.843 | – | 0.943 | – | 0.89 | –
S. pneumoniae D39V, first compound 0.5 µg/mL | – | 0.99 | – | ≥ 1 | – | 0.991
S. pneumoniae D39V, first compound 1 µg/mL | – | 0.973 | – | 0.962 | – | 0.941
S. pneumoniae D39V, first compound 2 µg/mL | – | 0.875 | – | 0.896 | – | 0.863

O=C(O)[C@H]1/C(=C/CO)O[C@@H]2CC(=O)N21 [Clavulanic acid] + COc1ccc(C[C@H](N)C(=O)N[C@H]2[C@@H](O)[C@H](n3cnc4c(N(C)C)ncnc43)O[C@@H]2CO)cc1 [Puromycin]
Conditions | fitness
B. subtilis 168, first compound 1.5 µg/mL, partner 0.39 µg/mL | 0.919
B. subtilis 168, first compound 1.5 µg/mL, partner 0.78 µg/mL | 0.995
B. subtilis 168, first compound 1.5 µg/mL, partner 1.56 µg/mL | 0.888
B. subtilis 168, first compound 3 µg/mL, partner 0.39 µg/mL | 0.872
B. subtilis 168, first compound 3 µg/mL, partner 0.78 µg/mL | 0.871
B. subtilis 168, first compound 3 µg/mL, partner 1.56 µg/mL | 0.851
B. subtilis 168, first compound 6 µg/mL, partner 0.39 µg/mL | 0.787
B. subtilis 168, first compound 6 µg/mL, partner 0.78 µg/mL | 0.76
B. subtilis 168, first compound 6 µg/mL, partner 1.56 µg/mL | 0.775
S. aureus Newman, first compound 0.03125 µg/mL, partner 0.39 µg/mL | 0.952
S. aureus Newman, first compound 0.03125 µg/mL, partner 0.78 µg/mL | 0.91
S. aureus Newman, first compound 0.03125 µg/mL, partner 1.56 µg/mL | ≥ 1
S. aureus Newman, first compound 0.0625 µg/mL, partner 0.39 µg/mL | ≥ 1
S. aureus Newman, first compound 0.0625 µg/mL, partner 0.78 µg/mL | ≥ 1
S. aureus Newman, first compound 0.0625 µg/mL, partner 1.56 µg/mL | 0.99
S. aureus Newman, first compound 0.125 µg/mL, partner 0.39 µg/mL | 0.89
S. aureus Newman, first compound 0.125 µg/mL, partner 0.78 µg/mL | 0.901
S. aureus Newman, first compound 0.125 µg/mL, partner 1.56 µg/mL | 0.894
S. pneumoniae D39V, first compound 0.5 µg/mL, partner 1 µg/mL | ≥ 1
S. pneumoniae D39V, first compound 0.5 µg/mL, partner 2 µg/mL | 0.931
S. pneumoniae D39V, first compound 1 µg/mL, partner 1 µg/mL | 0.937
S. pneumoniae D39V, first compound 1 µg/mL, partner 2 µg/mL | 0.891
S. pneumoniae D39V, first compound 1 µg/mL, partner 4 µg/mL | 0.528
S. pneumoniae D39V, first compound 2 µg/mL, partner 1 µg/mL | 0.72
S. pneumoniae D39V, first compound 2 µg/mL, partner 2 µg/mL | 0.793

O=C(O)[C@H]1/C(=C/CO)O[C@@H]2CC(=O)N21 [Clavulanic acid] + COc1cccc2c1C(=O)c1c(O)c3c(c(O)c1C2=O)C[C@@](O)(C(=O)CO)C[C@@H]3O[C@H]1C[C@H](N)[C@H](O)[C@H](C)O1 [Doxorubicin]
Conditions | fitness
B. subtilis 168, first compound 1.5 µg/mL, partner 0.625 µg/mL | 0.911
B. subtilis 168, first compound 1.5 µg/mL, partner 1.25 µg/mL | 0.9
B. subtilis 168, first compound 1.5 µg/mL, partner 2.5 µg/mL | 0.696
B. subtilis 168, first compound 3 µg/mL, partner 0.625 µg/mL | 0.849
B. subtilis 168, first compound 3 µg/mL, partner 1.25 µg/mL | 0.88
B. subtilis 168, first compound 3 µg/mL, partner 2.5 µg/mL | 0.625
B. subtilis 168, first compound 6 µg/mL, partner 0.625 µg/mL | 0.792
B. subtilis 168, first compound 6 µg/mL, partner 1.25 µg/mL | 0.736
S. aureus Newman, first compound 0.03125 µg/mL, partner 0.625 µg/mL | 0.979
S. aureus Newman, first compound 0.03125 µg/mL, partner 1.25 µg/mL | 0.905
S. aureus Newman, first compound 0.03125 µg/mL, partner 2.5 µg/mL | 0.739
S. aureus Newman, first compound 0.0625 µg/mL, partner 0.625 µg/mL | 0.984
S. aureus Newman, first compound 0.0625 µg/mL, partner 1.25 µg/mL | 0.883
S. aureus Newman, first compound 0.0625 µg/mL, partner 2.5 µg/mL | 0.755
S. aureus Newman, first compound 0.125 µg/mL, partner 0.625 µg/mL | 0.882
S. aureus Newman, first compound 0.125 µg/mL, partner 1.25 µg/mL | 0.803
S. aureus Newman, first compound 0.125 µg/mL, partner 2.5 µg/mL | 0.753
S. pneumoniae D39V, first compound 0.5 µg/mL, partner 0.25 µg/mL | 0.933
S. pneumoniae D39V, first compound 0.5 µg/mL, partner 0.5 µg/mL | 0.954
S. pneumoniae D39V, first compound 0.5 µg/mL, partner 1 µg/mL | 0.838
S. pneumoniae D39V, first compound 1 µg/mL, partner 0.25 µg/mL | 0.885
S. pneumoniae D39V, first compound 1 µg/mL, partner 0.5 µg/mL | 0.853
S. pneumoniae D39V, first compound 1 µg/mL, partner 1 µg/mL | 0.813
S. pneumoniae D39V, first compound 2 µg/mL, partner 1 µg/mL | 0.706

CC[C@H]1OC(=O)[C@H](C)[C@@H](O[C@H]2C[C@@](C)(OC)[C@@H](O)[C@H](C)O2)[C@H](C)[C@@H](O[C@@H]2O[C@H](C)C[C@H](N(C)C)[C@H]2O)[C@](C)(O)C[C@@H](C)CN(C)[C@H](C)[C@@H](O)[C@]1(C)O [Azithromycin] + O=C(O)[C@H]1/C(=C/CO)O[C@@H]2CC(=O)N21 [Clavulanic acid]
fitness
Conditions | partner 0.03125 µg/mL | partner 0.0625 µg/mL | partner 0.125 µg/mL | partner 1.5 µg/mL | partner 3 µg/mL | partner 6 µg/mL
B. subtilis 168, first compound 0.25 µg/mL | – | – | – | 0.939 | 0.911 | 0.793
B. subtilis 168, first compound 0.5 µg/mL | – | – | – | 0.805 | 0.788 | 0.727
S. aureus Newman, first compound 0.125 µg/mL | 0.962 | 0.973 | 0.92 | – | – | –
S. aureus Newman, first compound 0.25 µg/mL | 0.902 | 0.998 | 0.893 | – | – | –
S. aureus Newman, first compound 0.5 µg/mL | 0.811 | 0.799 | 0.834 | – | – | –

B. subtilis 168, first compound 2 µg/mL, one replicate
Conditions | fitness
partner 1.5 µg/mL | 0.0793
partner 3 µg/mL | 0.054
partner 6 µg/mL | 0.0121

O=C(O)[C@H]1/C(=C/CO)O[C@@H]2CC(=O)N21 [Clavulanic acid] + CC(C1CCC(C(O1)OC2C(CC(C(C2O)OC3C(C(C(CO3)(C)O)NC)O)N)N)N)NC [Gentamicin]
main component drawn
Conditions | fitness
B. subtilis 168, first compound 1.5 µg/mL, partner 0.0625 µg/mL | 0.884
B. subtilis 168, first compound 3 µg/mL, partner 0.0625 µg/mL | 0.859
B. subtilis 168, first compound 6 µg/mL, partner 0.0625 µg/mL | 0.737
B. subtilis 168, first compound 6 µg/mL, partner 0.25 µg/mL | 0.118
S. aureus Newman, first compound 0.03125 µg/mL, partner 1 µg/mL | 0.92
S. aureus Newman, first compound 0.03125 µg/mL, partner 2 µg/mL | ≥ 1
S. aureus Newman, first compound 0.03125 µg/mL, partner 4 µg/mL | 0.768
S. aureus Newman, first compound 0.0625 µg/mL, partner 1 µg/mL | 0.947
S. aureus Newman, first compound 0.0625 µg/mL, partner 2 µg/mL | 0.893
S. aureus Newman, first compound 0.0625 µg/mL, partner 4 µg/mL | 0.566
S. aureus Newman, first compound 0.125 µg/mL, partner 1 µg/mL | 0.872
S. aureus Newman, first compound 0.125 µg/mL, partner 2 µg/mL | 0.835
S. aureus Newman, first compound 0.125 µg/mL, partner 4 µg/mL | 0.388
S. pneumoniae D39V, first compound 0.5 µg/mL, partner 2 µg/mL | 0.96
S. pneumoniae D39V, first compound 0.5 µg/mL, partner 4 µg/mL | 0.955
S. pneumoniae D39V, first compound 0.5 µg/mL, partner 8 µg/mL | 0.932
S. pneumoniae D39V, first compound 1 µg/mL, partner 2 µg/mL | 0.902
S. pneumoniae D39V, first compound 1 µg/mL, partner 4 µg/mL | 0.896
S. pneumoniae D39V, first compound 1 µg/mL, partner 8 µg/mL | 0.885
S. pneumoniae D39V, first compound 2 µg/mL, partner 2 µg/mL | 0.795
S. pneumoniae D39V, first compound 2 µg/mL, partner 4 µg/mL | 0.8
S. pneumoniae D39V, first compound 2 µg/mL, partner 8 µg/mL | 0.787

O=C(O)[C@H]1/C(=C/CO)O[C@@H]2CC(=O)N21 [Clavulanic acid] + Cc1cc(NS(=O)(=O)c2ccc(N)cc2)no1 [Sulfamethoxazol]
fitness
Conditions | partner 1 µg/mL | partner 2 µg/mL | partner 4 µg/mL
B. subtilis 168, first compound 1.5 µg/mL | 0.853 | 0.883 | 0.93
B. subtilis 168, first compound 3 µg/mL | 0.816 | 0.839 | 0.943
B. subtilis 168, first compound 6 µg/mL | 0.704 | 0.733 | 0.798
S. aureus Newman, first compound 0.03125 µg/mL | 0.994 | 0.974 | 0.983
S. aureus Newman, first compound 0.0625 µg/mL | ≥ 1 | ≥ 1 | ≥ 1
S. aureus Newman, first compound 0.125 µg/mL | 0.951 | 0.929 | 0.929
S. pneumoniae D39V, first compound 0.5 µg/mL | 0.985 | 0.982 | 0.949
S. pneumoniae D39V, first compound 1 µg/mL | 0.914 | 0.93 | 0.856
S. pneumoniae D39V, first compound 2 µg/mL | 0.836 | 0.904 | 0.786

B. subtilis 168, partner 0.5 µg/mL, one replicate
Conditions | fitness
first compound 1.5 µg/mL | 0.974
first compound 3 µg/mL | 0.903
first compound 6 µg/mL | 0.952
